# The source made the active and inactive calls. No cut-off for these calls is given here.
# Tests used:
# [1] = molecular target: Vascular endothelial growth factor receptor 3 (Homo sapiens) (UniProt P35916); assay: Inhibition of recombinant human GST-tagged FLT4 (800-1297 residues) expressed in insect cells at 2 uM using Tyr 04 as substrate measured after 1 hr by Z'-LYTE assay relative to control; conditions: Insect cell
# NCI-H1975 = assay: Antitumor activity against human NCI-H1975 cells xenografted in female nude mouse model assessed as survival at 10 mg/kg, po qd administered as 5 days on/2 days off regimen for 4 cycles; assay type: functional, organism-based; conditions: time 28.0 day
# [2] = molecular target: Ephrin type-A receptor 2 (Homo sapiens) (UniProt P29317); assay: Inhibition of recombinant human GST-tagged EPHA2 (568-976 residues) expressed in insect cells at 2 uM using Tyr 01 as substrate measured after 1 hr by Z'-LYTE assay relative to control; conditions: Insect cell
# [3] = molecular target: Mitogen-activated protein kinase kinase kinase 9 (Homo sapiens) (UniProt P80192); assay: Inhibition of recombinant human GST-tagged MAP3K9 (1-500 residues) expressed in insect cells at 2 uM using Ser/Thr 07 as substrate measured after 1 hr by Z'-LYTE assay relative to control; conditions: Insect cell
# [4] = molecular target: Insulin receptor-related protein (Homo sapiens) (UniProt P14616); assay: Inhibition of recombinant human GST-tagged INSRR (944-1297 residues) expressed in insect cells at 2 uM using Tyr 04 as substrate measured after 1 hr by Z'-LYTE assay relative to control; conditions: Insect cell
# [5] = molecular target: Serine/threonine-protein kinase mTOR (Homo sapiens, UniProt P42345); conditions: HEK293, dose 0.1-1 nM, time 20.0 min
# [6] = molecular target: Serine/threonine-protein kinase Nek6 (Homo sapiens) (UniProt Q9HC98); assay: Inhibition of recombinant human full length GST-tagged NEK6 expressed in insect cells at 2 uM using Ser/Thr 22 as substrate measured after 1 hr by Z'-LYTE assay relative to control; conditions: Insect cell
# [7] = molecular target: Serine/threonine-protein kinase Chk2 (Homo sapiens) (UniProt O96017); assay: Inhibition of recombinant human full-length His-tagged CHEK2 expressed in baculovirus expression system at 2 uM using Ser/Thr 07 as substrate measured after 1 hr by Z'-LYTE assay relative to control
# mTORC2 (Homo sapiens) = mTORC2 (Homo sapiens) (UniProt P42345+Q6R327+Q9BVC4+Q9BPZ7); conditions: U-87 MG, dose 0.025-2 µmol/L, time 6.0 hrs
# A549 = assay: Antitumor activity against human A549 cells xenografted in female nude mouse model assessed as substantial regression in large tumor growth at 50 mg/kg, po qd administered as 5 days on/2 days off regimen for 4 cycles; assay type: functional, organism-based; conditions: time 28.0 day
# [8] = molecular target: Proto-oncogene tyrosine-protein kinase receptor Ret (Homo sapiens) (UniProt P07949); assay: Inhibition of recombinant human GST-tagged RET (658-1114 residues) expressed in insect cells at 2 uM using Tyr 02 as substrate measured after 1 hr by Z'-LYTE assay relative to control; conditions: Insect cell
# [9] = molecular target: Protein kinase C zeta type (Homo sapiens) (UniProt Q05513); assay: Inhibition of recombinant human PRKCZ at 2 uM using Ser/Thr 07 as substrate measured after 1 hr by Z'-LYTE assay relative to control
# [10] = molecular target: Tyrosine-protein kinase ABL1 (Homo sapiens) (UniProt P00519); assay: Inhibition of recombinant human full-length His-tagged ABL1 expressed in insect cells at 2 uM using Tyr 02 as substrate measured after 1 hr by Z'-LYTE assay relative to control; conditions: Insect cell
# MDA-MB-361 [11] = assay: Antitumor activity against human MDA-MB-361 cells assessed as reduction in oxygen consumption rate at 1 micromol/L incubated for 1 hrs relative to control; assay type: functional; set-up: scale not given: the % may be the effect or the level left; conditions: dose 1 µmol/L, at 1 µM
# MDA-MB-361 [12] = assay: Inhibition of protein synthesis in human MDA-MB-361 cells at 0.3 micromol/L incubated for 3 hrs by [3H] methionine incorporation based scintillation counter analysis relative to control; assay type: functional; conditions: MDA-MB-361, 3 h, dose 0.3 µmol/L
# [13] = molecular target: Ephrin type-A receptor 1 (Homo sapiens) (UniProt P21709); assay: Inhibition of recombinant human GST-tagged EPHA1 (568-976 residues) expressed in insect cells at 2 uM using Tyr 02 as substrate measured after 1 hr by Z'-LYTE assay relative to control; conditions: Insect cell
# [14] = molecular target: Dual specificity protein kinase CLK3 (Homo sapiens) (UniProt P49761); assay: Inhibition of recombinant human full-length GST-tagged CLK3 expressed in insect cells at 2 uM using Ser/Thr 18 as substrate measured after 1 hr by Z'-LYTE assay relative to control; conditions: Insect cell
# [15] = molecular target: SRSF protein kinase 3 (Homo sapiens) (UniProt Q9UPE1); assay: Inhibition of recombinant human full length GST-tagged STK23 expressed in baculovirus expression system at 2 uM using Ser/Thr 18 as substrate measured after 1 hr by Z'-LYTE assay relative to control
# [16] = molecular target: Ephrin type-B receptor 2 (Homo sapiens) (UniProt P29323); assay: Inhibition of recombinant human GST-tagged EPHB2 (616-884 residues) expressed in insect cells at 2 uM using Tyr 02 as substrate measured after 1 hr by Z'-LYTE assay relative to control; conditions: Insect cell
# [17] = molecular target: Casein kinase I isoform gamma-3 (Homo sapiens) (UniProt Q9Y6M4); assay: Inhibition of recombinant human full-length GST-tagged CSNK1G3 expressed in insect cells at 2 uM using Ser/Thr 05 as substrate measured after 1 hr by Z'-LYTE assay relative to control; conditions: Insect cell
# [18] = molecular target: Phosphorylase b kinase gamma catalytic chain, skeletal muscle/heart isoform (Homo sapiens) (UniProt Q16816); assay: Inhibition of recombinant human full length GST-tagged PHKG1 expressed in insect cells at 2 uM using Ser/Thr 07 as substrate measured after 1 hr by Z'-LYTE assay relative to control; conditions: Insect cell
# [19] = system: Epidermal growth factor receptor (Homo sapiens), P00533 [T790M]; assay: Inhibition of recombinant human GST-tagged EGFR T790M mutant (668-1210 residues) expressed in insect cells at 2 uM using Tyr 04 as substrate measured after 1 hr by Z'-LYTE assay relative to control; conditions: Insect cell
# [20] = molecular target: Tyrosine-protein kinase JAK2 (Homo sapiens) (UniProt O60674); assay: Inhibition of recombinant human GST-tagged JAK2 JH1 JH2 domains (532-1132 residues) expressed in insect cells at 2 uM using Tyr 06 as substrate measured after 1 hr by Z'-LYTE assay relative to control; conditions: Insect cell
# [21] = system: Fibroblast growth factor receptor 3 (Homo sapiens), P22607 [K650E]; assay: Inhibition of recombinant human His-tagged FGFR3 FGFR3 K650E mutant (398-806 residues) expressed in baculovirus expression system at 2 uM using Tyr 04 as substrate measured after 1 hr by Z'-LYTE assay relative to control
# [22] = molecular target: Death-associated protein kinase 3 (Homo sapiens) (UniProt O43293); assay: Inhibition of recombinant human full-length GST-tagged DAPK3 expressed in insect cells at 2 uM using Ser/Thr 13 as substrate measured after 1 hr by Z'-LYTE assay relative to control; conditions: Insect cell
# Sequence of Serine/threonine-protein kinase Nek6 (Homo sapiens) (Q9HC98 whole entry): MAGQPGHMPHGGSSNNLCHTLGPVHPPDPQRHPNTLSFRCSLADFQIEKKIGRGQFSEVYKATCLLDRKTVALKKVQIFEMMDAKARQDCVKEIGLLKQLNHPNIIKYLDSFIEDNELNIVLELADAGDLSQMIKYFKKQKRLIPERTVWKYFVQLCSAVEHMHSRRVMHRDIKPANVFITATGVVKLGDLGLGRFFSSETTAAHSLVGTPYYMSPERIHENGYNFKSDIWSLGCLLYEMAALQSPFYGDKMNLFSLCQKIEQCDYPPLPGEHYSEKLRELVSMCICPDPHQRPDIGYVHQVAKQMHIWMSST
# Sequence of Ephrin type-B receptor 2 (Homo sapiens) (P29323 whole entry, the tested form may be a part, canonical isoform): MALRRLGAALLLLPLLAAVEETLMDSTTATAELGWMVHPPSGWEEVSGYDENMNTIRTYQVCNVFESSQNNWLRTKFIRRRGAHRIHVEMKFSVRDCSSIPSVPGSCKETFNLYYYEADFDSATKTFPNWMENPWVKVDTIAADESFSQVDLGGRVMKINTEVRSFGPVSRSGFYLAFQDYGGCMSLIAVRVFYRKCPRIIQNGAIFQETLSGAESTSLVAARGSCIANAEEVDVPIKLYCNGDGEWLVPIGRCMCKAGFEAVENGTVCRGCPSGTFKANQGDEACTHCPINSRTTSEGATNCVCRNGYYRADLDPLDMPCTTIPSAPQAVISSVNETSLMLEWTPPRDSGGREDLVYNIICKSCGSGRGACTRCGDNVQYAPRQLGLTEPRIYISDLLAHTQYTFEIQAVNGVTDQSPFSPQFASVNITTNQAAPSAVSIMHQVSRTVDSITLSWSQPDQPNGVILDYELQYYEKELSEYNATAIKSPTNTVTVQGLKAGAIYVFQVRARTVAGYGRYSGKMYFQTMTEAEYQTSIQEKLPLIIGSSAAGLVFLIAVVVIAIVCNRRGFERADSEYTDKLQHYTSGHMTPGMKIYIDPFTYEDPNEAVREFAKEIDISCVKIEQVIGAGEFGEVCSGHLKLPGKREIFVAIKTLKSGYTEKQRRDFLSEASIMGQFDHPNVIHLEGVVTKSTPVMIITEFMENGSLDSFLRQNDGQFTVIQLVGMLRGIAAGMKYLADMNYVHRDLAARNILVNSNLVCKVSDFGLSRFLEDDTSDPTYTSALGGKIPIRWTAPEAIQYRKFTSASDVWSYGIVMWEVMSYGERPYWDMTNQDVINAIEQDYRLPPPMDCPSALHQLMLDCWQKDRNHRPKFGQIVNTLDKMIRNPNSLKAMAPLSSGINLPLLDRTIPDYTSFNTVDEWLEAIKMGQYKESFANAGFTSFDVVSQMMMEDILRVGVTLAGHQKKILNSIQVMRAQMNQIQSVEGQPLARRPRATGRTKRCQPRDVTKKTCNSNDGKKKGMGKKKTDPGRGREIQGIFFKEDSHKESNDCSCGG
# Sequence of Tyrosine-protein kinase JAK2 (Homo sapiens) (O60674 whole entry, the tested form may be a part): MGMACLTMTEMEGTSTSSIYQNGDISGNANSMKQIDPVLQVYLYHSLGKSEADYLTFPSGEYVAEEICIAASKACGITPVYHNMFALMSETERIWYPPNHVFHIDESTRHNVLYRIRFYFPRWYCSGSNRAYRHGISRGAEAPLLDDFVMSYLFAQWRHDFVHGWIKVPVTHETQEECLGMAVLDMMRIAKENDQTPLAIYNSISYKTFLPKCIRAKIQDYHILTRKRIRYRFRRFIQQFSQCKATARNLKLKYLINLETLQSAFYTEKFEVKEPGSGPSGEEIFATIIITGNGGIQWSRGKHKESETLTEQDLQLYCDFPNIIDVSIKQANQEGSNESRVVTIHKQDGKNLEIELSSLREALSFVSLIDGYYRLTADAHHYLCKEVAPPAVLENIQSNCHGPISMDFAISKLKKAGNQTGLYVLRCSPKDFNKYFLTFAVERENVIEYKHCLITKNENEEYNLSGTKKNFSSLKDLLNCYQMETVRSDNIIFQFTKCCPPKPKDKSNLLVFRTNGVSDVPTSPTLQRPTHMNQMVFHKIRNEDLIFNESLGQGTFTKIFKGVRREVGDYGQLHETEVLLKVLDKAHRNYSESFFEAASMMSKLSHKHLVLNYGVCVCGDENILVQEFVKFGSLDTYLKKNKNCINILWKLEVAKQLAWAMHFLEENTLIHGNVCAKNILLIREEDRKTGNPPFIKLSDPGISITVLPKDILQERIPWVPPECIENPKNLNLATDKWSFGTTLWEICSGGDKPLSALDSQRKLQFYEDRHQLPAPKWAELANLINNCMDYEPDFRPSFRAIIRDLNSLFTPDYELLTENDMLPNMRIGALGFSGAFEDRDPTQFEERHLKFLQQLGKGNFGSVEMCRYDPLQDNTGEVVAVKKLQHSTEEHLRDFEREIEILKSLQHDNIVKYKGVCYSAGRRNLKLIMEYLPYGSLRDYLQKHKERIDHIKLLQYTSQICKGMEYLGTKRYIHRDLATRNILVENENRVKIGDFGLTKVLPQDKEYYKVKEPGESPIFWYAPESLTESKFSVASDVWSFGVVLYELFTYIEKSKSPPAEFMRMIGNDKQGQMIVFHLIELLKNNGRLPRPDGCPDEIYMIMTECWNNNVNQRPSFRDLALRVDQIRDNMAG
# Sequence of Phosphorylase b kinase gamma catalytic chain, skeletal muscle/heart isoform (Homo sapiens) (Q16816 whole entry, looked up, the tested form may be a part, canonical isoform): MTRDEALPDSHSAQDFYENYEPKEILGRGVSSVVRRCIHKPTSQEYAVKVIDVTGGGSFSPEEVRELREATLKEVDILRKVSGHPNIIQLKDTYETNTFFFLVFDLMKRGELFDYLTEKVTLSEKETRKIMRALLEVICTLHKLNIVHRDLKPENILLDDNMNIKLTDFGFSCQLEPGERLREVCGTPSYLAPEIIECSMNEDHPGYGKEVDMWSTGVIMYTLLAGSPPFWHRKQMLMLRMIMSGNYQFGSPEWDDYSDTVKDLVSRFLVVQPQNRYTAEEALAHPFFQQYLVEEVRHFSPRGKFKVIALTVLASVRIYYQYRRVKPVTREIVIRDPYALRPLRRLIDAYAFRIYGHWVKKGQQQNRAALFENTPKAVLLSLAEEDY
# Sequence of Fibroblast growth factor receptor 3 (Homo sapiens), P22607 [K650E] (P22607 whole entry K650E, the tested form may be a part): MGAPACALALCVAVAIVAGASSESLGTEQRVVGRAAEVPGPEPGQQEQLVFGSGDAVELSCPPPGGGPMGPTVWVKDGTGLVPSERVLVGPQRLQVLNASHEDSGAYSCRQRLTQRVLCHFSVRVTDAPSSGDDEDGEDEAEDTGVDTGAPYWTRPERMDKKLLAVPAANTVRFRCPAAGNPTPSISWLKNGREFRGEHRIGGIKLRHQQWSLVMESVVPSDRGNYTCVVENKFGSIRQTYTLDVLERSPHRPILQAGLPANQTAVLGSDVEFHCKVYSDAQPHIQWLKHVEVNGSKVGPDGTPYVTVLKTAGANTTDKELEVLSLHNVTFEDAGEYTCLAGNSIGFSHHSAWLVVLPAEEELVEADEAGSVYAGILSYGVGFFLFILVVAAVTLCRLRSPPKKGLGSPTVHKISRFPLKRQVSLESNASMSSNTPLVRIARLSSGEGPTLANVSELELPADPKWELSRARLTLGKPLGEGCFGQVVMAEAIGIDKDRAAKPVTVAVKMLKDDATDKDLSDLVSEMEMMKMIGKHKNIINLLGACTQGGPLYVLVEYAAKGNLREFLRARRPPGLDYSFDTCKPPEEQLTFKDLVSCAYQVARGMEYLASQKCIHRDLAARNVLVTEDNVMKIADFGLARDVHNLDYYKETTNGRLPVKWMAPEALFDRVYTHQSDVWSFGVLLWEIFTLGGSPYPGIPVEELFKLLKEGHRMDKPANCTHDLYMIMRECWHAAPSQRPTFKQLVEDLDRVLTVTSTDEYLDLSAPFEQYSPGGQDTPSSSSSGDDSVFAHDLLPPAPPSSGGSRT
# Sequence of Casein kinase I isoform gamma-3 (Homo sapiens) (Q9Y6M4 whole entry, looked up, canonical isoform): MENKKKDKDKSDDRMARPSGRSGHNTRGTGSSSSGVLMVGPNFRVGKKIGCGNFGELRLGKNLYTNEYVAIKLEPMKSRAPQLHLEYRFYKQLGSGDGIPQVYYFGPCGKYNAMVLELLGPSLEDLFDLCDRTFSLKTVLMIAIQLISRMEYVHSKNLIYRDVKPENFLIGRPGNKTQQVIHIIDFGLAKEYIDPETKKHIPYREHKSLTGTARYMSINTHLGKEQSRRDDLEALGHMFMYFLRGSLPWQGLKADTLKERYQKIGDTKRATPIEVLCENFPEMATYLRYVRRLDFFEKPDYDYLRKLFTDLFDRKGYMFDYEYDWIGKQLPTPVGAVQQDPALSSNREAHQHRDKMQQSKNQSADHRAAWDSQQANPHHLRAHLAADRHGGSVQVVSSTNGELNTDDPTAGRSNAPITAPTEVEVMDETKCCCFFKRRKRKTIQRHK
# Sequence of Protein kinase C zeta type (Homo sapiens) (Q05513 whole entry): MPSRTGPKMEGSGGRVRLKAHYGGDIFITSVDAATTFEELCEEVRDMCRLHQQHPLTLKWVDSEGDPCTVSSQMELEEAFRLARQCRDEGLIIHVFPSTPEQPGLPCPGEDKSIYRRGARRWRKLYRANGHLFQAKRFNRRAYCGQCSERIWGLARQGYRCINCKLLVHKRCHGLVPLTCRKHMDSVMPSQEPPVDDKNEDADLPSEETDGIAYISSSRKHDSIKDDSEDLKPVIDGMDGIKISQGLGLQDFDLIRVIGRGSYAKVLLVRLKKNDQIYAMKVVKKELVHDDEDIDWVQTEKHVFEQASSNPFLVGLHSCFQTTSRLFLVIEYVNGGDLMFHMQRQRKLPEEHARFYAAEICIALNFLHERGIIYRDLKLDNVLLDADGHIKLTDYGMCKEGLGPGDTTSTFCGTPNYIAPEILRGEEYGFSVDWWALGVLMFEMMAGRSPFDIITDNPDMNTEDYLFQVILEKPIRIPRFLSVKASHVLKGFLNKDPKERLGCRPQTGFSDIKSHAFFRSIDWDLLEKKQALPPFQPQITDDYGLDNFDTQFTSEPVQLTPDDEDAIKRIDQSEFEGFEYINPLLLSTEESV
smiles,measurement,setting,value
CNC(=O)Nc1ccc(-c2nc(N3CC4CCC(C3)O4)c3cnn(C4CCC5(CC4)OCCO5)c3n2)cc1,inhibition,[1],4%
same,Activity,NCI-H1975,Active
same,inhibition,[2],8%
same,inhibition,[3],11%
same,inhibition,[4],6%
same,inhibition,[5],Active
same,inhibition,[6],12%
same,inhibition,[7],3%
same,inhibition,mTORC2 (Homo sapiens),Active
same,Activity,A549,Active
same,inhibition,[8],4%
same,inhibition,[9],8%
same,inhibition,[10],4%
same,Activity,MDA-MB-361 [11],35%
same,inhibition at 0.3 µM,MDA-MB-361 [12],~50%
same,inhibition,[13],3%
same,inhibition,[14],2%
same,inhibition,[15],6%
same,inhibition,[16],6%
same,inhibition,[17],-1%
same,inhibition,[18],7%
same,inhibition,[19],2%
same,inhibition,[20],2%
same,inhibition,[21],6%
same,inhibition,[22],2%

# From ChEMBL document CHEMBL5696439 (Cancer Res, 2010)
